The source of these data is PubChem BioAssay AID1259407 (Chemical Carcinogenesis Research Information System (CCRIS), 2018).

Active and inactive are the calls of the source. The rule behind the calls is not given here.

The subject of the series is CCRIS mutagenicity, Ames/micronucleus/aberration tests. Nature of the series: CCRIS mutagenicity studies.
Setting [1] is: Test System: AMES SALMONELLA TYPHIMURIUM, Strain/Indicator: TA98, Metabolic Activation: NONE, Method: STANDARD PLATE.
Setting [2] is: Test System: AMES SALMONELLA TYPHIMURIUM, Strain/Indicator: TA98, Metabolic Activation: RAT, LIVER, S-9, AROCLOR 1254, Method: STANDARD PLATE.
The mark [3] stands for this setting: Test System: AMES SALMONELLA TYPHIMURIUM, Strain/Indicator: TA100, Metabolic Activation: NONE, Method: STANDARD PLATE.
Setting [4] is: Test System: AMES SALMONELLA TYPHIMURIUM, Strain/Indicator: TA100, Metabolic Activation: RAT, LIVER, S-9, AROCLOR 1254, Method: STANDARD PLATE.
The mark [5] stands for this setting: Test System: AMES SALMONELLA TYPHIMURIUM, Strain/Indicator: TA98, Metabolic Activation: NONE, Method: PREINCUBATION
The mark [6] stands for this setting: Test System: AMES SALMONELLA TYPHIMURIUM, Strain/Indicator: TA100, Metabolic Activation: NONE, Method: PREINCUBATION
Setting [7] is: Test System: AMES SALMONELLA TYPHIMURIUM, Strain/Indicator: TA1535, Metabolic Activation: NONE, Method: PREINCUBATION
Where [8] appears, read: Test System: AMES SALMONELLA TYPHIMURIUM, Strain/Indicator: TA1537, Metabolic Activation: NONE, Method: PREINCUBATION

In the case of `COP(=O)(SC)SC`, the mutagenic call reads like this: (Test System: AMES SALMONELLA TYPHIMURIUM, Strain/Indicator: TA97, Metabolic Activation: NONE, Method: STANDARD PLATE) “inactive; negative”; (Test System: AMES SALMONELLA TYPHIMURIUM, Strain/Indicator: TA97, Metabolic Activation: RAT, LIVER, S-9, AROCLOR 1254, Method: PREINCUBATION) “inactive; negative”; (Test System: AMES SALMONELLA TYPHIMURIUM, Strain/Indicator: TA97, Metabolic Activation: RAT, LIVER, S-9, AROCLOR 1254, Method: STANDARD PLATE) “inactive; negative”; under setting [1], “inactive; negative”; (Test System: AMES SALMONELLA TYPHIMURIUM, Strain/Indicator: TA98, Metabolic Activation: RAT, LIVER, S-9, AROCLOR 1254, Method: PREINCUBATION) “inactive; negative”; under setting [2], “inactive; negative”. The mutagenic call is “inactive; negative” under setting [3]; “inactive; negative” (Test System: AMES SALMONELLA TYPHIMURIUM, Strain/Indicator: TA100, Metabolic Activation: RAT, LIVER, S-9, AROCLOR 1254, Method: PREINCUBATION); “inactive; negative” under setting [4].

`Nc1c(F)cc(-c2cc(F)c(N)c(F)c2)cc1F`: the mutagenic call (Test System: UDS HUMAN CELLS, Strain/Indicator: THY INCORP (NON-S-PHASE), Metabolic Activation: RAT, LIVER, S-9, PHENOBARBITAL, Method: LIQUID SCINTILLATION COUNTING) is “active; positive”.

For `Nc1ccn([C@@H]2O[C@H](CO)[C@@H](O)[C@@H]2O)c(=O)n1`, the mutagenic call is “inactive; negative” (Test System: AMES SALMONELLA TYPHIMURIUM, Strain/Indicator: TA98, Metabolic Activation: HAMSTER, LIVER, S-9, AROCLOR 1254 (10%), Method: PREINCUBATION); “inactive; negative” under setting [5]; “inactive; negative” (Test System: AMES SALMONELLA TYPHIMURIUM, Strain/Indicator: TA98, Metabolic Activation: RAT, LIVER, S-9, AROCLOR 1254 (10%), Method: PREINCUBATION); “inactive; negative” (Test System: AMES SALMONELLA TYPHIMURIUM, Strain/Indicator: TA100, Metabolic Activation: HAMSTER, LIVER, S-9, AROCLOR 1254 (10%), Method: PREINCUBATION); “inactive; negative” under setting [6]; “inactive; negative” (Test System: AMES SALMONELLA TYPHIMURIUM, Strain/Indicator: TA100, Metabolic Activation: RAT, LIVER, S-9, AROCLOR 1254 (10%), Method: PREINCUBATION). In addition, the mutagenic call runs as follows: (Test System: AMES SALMONELLA TYPHIMURIUM, Strain/Indicator: TA1535, Metabolic Activation: HAMSTER, LIVER, S-9, AROCLOR 1254 (10%), Method: PREINCUBATION) “inactive; negative”; under setting [7], “inactive; negative”; (Test System: AMES SALMONELLA TYPHIMURIUM, Strain/Indicator: TA1535, Metabolic Activation: RAT, LIVER, S-9, AROCLOR 1254 (10%), Method: PREINCUBATION) “inactive; negative”; (Test System: AMES SALMONELLA TYPHIMURIUM, Strain/Indicator: TA1537, Metabolic Activation: HAMSTER, LIVER, S-9, AROCLOR 1254 (10%), Method: PREINCUBATION) “inactive; negative”; under setting [8], “inactive; negative”; (Test System: AMES SALMONELLA TYPHIMURIUM, Strain/Indicator: TA1537, Metabolic Activation: RAT, LIVER, S-9, AROCLOR 1254 (10%), Method: PREINCUBATION) “inactive; negative”.

Turning to `O=C1CCCCCCCCCCCCCCO1`, the mutagenic call was “inactive; negative” under setting [5]; “inactive; negative” (Test System: AMES SALMONELLA TYPHIMURIUM, Strain/Indicator: TA98, Metabolic Activation: RAT LIVER S-9, PHENOBARBITAL AND BETA-NAPHTHOFLAVONE, Method: PREINCUBATION); “inactive; negative” under setting [6]; “inactive; negative” (Test System: AMES SALMONELLA TYPHIMURIUM, Strain/Indicator: TA100, Metabolic Activation: RAT LIVER S-9, PHENOBARBITAL AND BETA-NAPHTHOFLAVONE, Method: PREINCUBATION); “inactive; negative” (Test System: AMES SALMONELLA TYPHIMURIUM, Strain/Indicator: TA102, Metabolic Activation: NONE, Method: PREINCUBATION); “inactive; negative” (Test System: AMES SALMONELLA TYPHIMURIUM, Strain/Indicator: TA102, Metabolic Activation: RAT LIVER S-9, PHENOBARBITAL AND BETA-NAPHTHOFLAVONE, Method: PREINCUBATION). Further, the mutagenic call is, setting by setting: (Test System: AMES SALMONELLA TYPHIMURIUM, Strain/Indicator: TA104, Metabolic Activation: NONE, Method: PREINCUBATION) “inactive; negative”; (Test System: AMES SALMONELLA TYPHIMURIUM, Strain/Indicator: TA104, Metabolic Activation: RAT LIVER S-9, PHENOBARBITAL AND BETA-NAPHTHOFLAVONE, Method: PREINCUBATION) “inactive; negative”; under setting [7], “inactive; negative”; (Test System: AMES SALMONELLA TYPHIMURIUM, Strain/Indicator: TA1535, Metabolic Activation: RAT LIVER S-9, PHENOBARBITAL AND BETA-NAPHTHOFLAVONE, Method: PREINCUBATION) “inactive; negative”; under setting [8], “inactive; negative”; (Test System: AMES SALMONELLA TYPHIMURIUM, Strain/Indicator: TA1537, Metabolic Activation: RAT LIVER S-9, PHENOBARBITAL AND BETA-NAPHTHOFLAVONE, Method: PREINCUBATION) “inactive; negative”. Further, the mutagenic call was “inactive; negative” (Test System: E.COLI, Strain/Indicator: WP2UVRA/PKM101, Metabolic Activation: NONE, Method: PREINCUBATION); “inactive; negative” (Test System: E.COLI, Strain/Indicator: WP2UVRA/PKM101, Metabolic Activation: RAT LIVER S-9, PHENOBARBITAL AND BETA-NAPHTHOFLAVONE, Method: PREINCUBATION); “inactive; negative” (Test System: E.COLI, Strain/Indicator: WP2UVRA, Metabolic Activation: NONE, Method: PREINCUBATION); “inactive; negative” (Test System: E.COLI, Strain/Indicator: WP2UVRA, Metabolic Activation: RAT LIVER S-9, PHENOBARBITAL AND BETA-NAPHTHOFLAVONE, Method: PREINCUBATION).

For the compound `CCCCOc1cc(N=Nc2ccccc2)ccc1N=Nc1c(S(=O)(=O)O)cc2ccc(N)cc2c1O`, the mutagenic call by setting is: under setting [1], “inactive; negative”; under setting [2], “active; positive”; under setting [3], “inactive; negative”; under setting [4], “inactive; negative”; (Test System: AMES SALMONELLA TYPHIMURIUM, Strain/Indicator: TA1538, Metabolic Activation: NONE, Method: STANDARD PLATE) “inactive; negative”; (Test System: AMES SALMONELLA TYPHIMURIUM, Strain/Indicator: TA1538, Metabolic Activation: RAT, LIVER, S-9, AROCLOR 1254, Method: STANDARD PLATE) “active; positive”.
